Measurements: ChEMBL document CHEMBL5537148, “Discovery of (quinazolin-6-yl)benzamide derivatives containing a 6,7-dimethoxy-1,2,3,4-tetrahydroisoquinoline moiety as potent reversal agents against P-glycoprotein-mediated multidrug resistance” (Eur J Med Chem, 2024)
Active and inactive are the calls of the source. The rule behind the calls is not given here.

How the values were obtained:
[1] = Reversal fold, ratio of adriamycin IC50 to adriamycin IC50 in presence of 0.1 uM test compound for reversal of adriamycin-mediated resistance in human MCF7/ADM cells by MTT method; format: functional
[2] = Toxicity in Balb/c mouse xenografted with human MCF7/ADR cells assessed as liver cell necrosis at 2 mg/kg, ip administered once every 3 days for 25 days in presence of adriamycin by H&E staining based analysis; format: organism-based, NCI/ADR-RES; conditions: in vivo, 600 h, time 25 day
[3] = biological target: ATP-dependent translocase ABCB1 (Homo sapiens, UniProt P08183); assay: Inhibition of P-gp-mediated rhodamine-123 efflux in human MCF7/ADM cells assessed as increase in fluorescence intensity at 0.1 uM incubated for 6 hrs followed by Rh123 addition for 3 hrs by Fluorescence microplate reader analysis; format: cell-based; conditions: 9 h
MCF7/ADM [4] = assay: Antitumor activity against human MCF7/ADM cells xenografted in BABL/c mouse assessed as increase in tumor degeneration at 2 mg/kg, ip administered once every 3 days for 25 days in the presence of adriamycin by H&E staining based analysis; format: functional, organism-based; conditions: time 25.0 day
[5] = Toxicity in Balb/c mouse xenografted with human MCF7/ADR cells assessed as kidney cell necrosis at 2 mg/kg, ip administered once every 3 days for 25 days in presence of adriamycin by H&E staining based analysis; format: organism-based, NCI/ADR-RES; conditions: in vivo, 600 h, time 25 day
MCF7/ADM [6] = assay: Antitumor activity against human MCF7/ADM cells xenografted in BABL/c mouse assessed as decrease in tumor weight at 2 mg/kg, ip administered once every 3 days for 25 days in the presence of adriamycin; format: functional, organism-based; conditions: time 25.0 day
MCF7/ADM [7] = assay: Induction of apoptosis in human MCF7/ADM cells incubated for 48 hrs in presence of adriamycin by Annexin V-FITC/PI staining based flow cytometric analysis; format: functional, cell-based; conditions: dose 0.1-1 µM
MCF7/ADM [8] = assay: Antitumor activity against human MCF7/ADM cells xenografted in BABL/c mouse assessed as decrease in tumor volume at 2 mg/kg, ip administered once every 3 days for 25 days in the presence of adriamycin; format: functional, organism-based; conditions: time 25.0 day
MCF7/ADM [9] = assay: Inhibition of cell invasion in human MCF7/ADM cells at 0.1 uM incubated for 24 hrs in the presence of adriamycin by Transwell assay; format: functional, cell-based
MCF7/ADM [10] = assay: Effect on P-gp expression in human MCF7/ADM cells at 0.1 uM by Western blot analysis; format: functional, cell-based
MCF7/ADM [11] = assay: Antitumor activity against human MCF7/ADM cells xenografted BABL/c mouse model assessed as increase in tumor necrosis at 2 mg/kg, ip administered once every 3 days for 25 days in the presence of adriamycin by H&E staining based analysis; format: functional, organism-based; conditions: time 25.0 day
MCF7/ADM [12] = assay: Inhibition of cell migration in human MCF7/ADM cells at 0.1 uM incubated for 24 to 48 hrs in the presence of adriamycin by Wound healing assay; format: functional, cell-based; conditions: time 24-48 hrs
[13] = Antitumor activity against human MCF7/ADM cells xenografted in BABL/c mouse assessed as tumor growth inhibition at 2 mg/kg, ip administered once every 3 days for 25 days in the presence of adriamycin relative to control; format: functional; conditions: 600 h, time 25 day, read-out: TGI
MCF7/ADM [14] = assay: Inhibition of colony formation in human MCF7/ADM cells at 0.1 uM incubated for 15 days with fresh media replacement for every 2 days in the presence of adriamycin by crystal violet staining based imaging analysis; format: functional, cell-based; conditions: time 15.0 day
[15] = Toxicity in Balb/c mouse xenografted with human MCF7/ADR cells assessed as liver cell necrosis at 10 mg/kg, ip administered once every 3 days for 25 days by H&E staining based analysis; format: organism-based, NCI/ADR-RES; conditions: in vivo, 600 h, time 25 day
[16] = Toxicity in Balb/c mouse xenografted with human MCF7/ADR cells assessed as kidney cell necrosis at 10 mg/kg, ip administered once every 3 days for 25 days by H&E staining based analysis; format: organism-based, NCI/ADR-RES; conditions: in vivo, 600 h, time 25 day

Sequence of ATP-dependent translocase ABCB1 (P08183 whole entry): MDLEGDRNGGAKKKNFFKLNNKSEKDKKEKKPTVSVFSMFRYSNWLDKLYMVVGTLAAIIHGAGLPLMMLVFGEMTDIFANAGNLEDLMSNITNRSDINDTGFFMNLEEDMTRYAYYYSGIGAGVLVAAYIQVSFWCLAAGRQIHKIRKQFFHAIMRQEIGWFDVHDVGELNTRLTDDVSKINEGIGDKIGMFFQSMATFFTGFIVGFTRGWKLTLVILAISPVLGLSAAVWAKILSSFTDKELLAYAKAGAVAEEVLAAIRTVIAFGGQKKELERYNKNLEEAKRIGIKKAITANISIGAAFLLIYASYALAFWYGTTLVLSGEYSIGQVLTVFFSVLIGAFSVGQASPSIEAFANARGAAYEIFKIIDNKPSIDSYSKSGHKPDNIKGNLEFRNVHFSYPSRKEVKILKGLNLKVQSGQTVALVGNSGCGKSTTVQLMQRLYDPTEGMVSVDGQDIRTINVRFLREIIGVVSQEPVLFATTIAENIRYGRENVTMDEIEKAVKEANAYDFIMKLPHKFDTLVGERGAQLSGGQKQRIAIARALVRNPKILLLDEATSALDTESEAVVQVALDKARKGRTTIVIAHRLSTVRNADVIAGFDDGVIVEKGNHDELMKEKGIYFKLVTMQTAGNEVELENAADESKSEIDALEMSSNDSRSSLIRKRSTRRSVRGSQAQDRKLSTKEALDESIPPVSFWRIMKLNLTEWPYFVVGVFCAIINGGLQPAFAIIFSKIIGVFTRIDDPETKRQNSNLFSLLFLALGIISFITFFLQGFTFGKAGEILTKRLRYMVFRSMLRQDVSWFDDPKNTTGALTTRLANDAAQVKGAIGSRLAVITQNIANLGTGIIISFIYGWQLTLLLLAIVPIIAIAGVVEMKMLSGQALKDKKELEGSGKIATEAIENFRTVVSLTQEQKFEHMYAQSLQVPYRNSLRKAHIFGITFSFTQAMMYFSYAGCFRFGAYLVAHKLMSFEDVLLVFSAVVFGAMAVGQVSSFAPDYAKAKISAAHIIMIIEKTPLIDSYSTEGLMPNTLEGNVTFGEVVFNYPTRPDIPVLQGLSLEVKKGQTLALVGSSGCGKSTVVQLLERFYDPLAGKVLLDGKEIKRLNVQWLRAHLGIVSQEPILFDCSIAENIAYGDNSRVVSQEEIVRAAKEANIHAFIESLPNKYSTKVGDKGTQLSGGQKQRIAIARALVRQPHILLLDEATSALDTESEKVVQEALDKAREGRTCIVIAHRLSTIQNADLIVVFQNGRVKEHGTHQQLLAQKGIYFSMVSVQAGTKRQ

Compound	Ratio IC50 [1]	further results
COc1cc2c(cc1OC)CN(CCNC(=O)c1ccc(-c3ccc4ncnc(Nc5ccccc5F)c4c3)cc1)CC2	2.4	
COc1cc2c(cc1OC)CN(CCNC(=O)c1ccc(-c3ccc4ncnc(Nc5ccccc5Br)c4c3)cc1)CC2	16.6	
COc1cc2c(cc1OC)CN(CCNC(=O)c1ccc(-c3ccc4ncnc(NCc5cccc(Br)c5)c4c3)cc1)CC2	1.2	
COc1cc2c(cc1OC)CN(CCNC(=O)c1ccc(-c3ccc4ncnc(Nc5ccccc5)c4c3)cc1)CC2	3.5	
COc1ccccc1Nc1ncnc2ccc(-c3ccc(C(=O)NCCN4CCc5cc(OC)c(OC)cc5C4)cc3)cc12	83.4	Activity [2]: Non-Toxic; inhibition (INH) [3]: Active; Activity (MCF7/ADM [4]): Active; Activity [5]: Non-Toxic; Activity (MCF7/ADM [6]): Active; Activity (MCF7/ADM [7]): Dose-Dependent Effect; Activity (MCF7/ADM [8]): Active; inhibition (MCF7/ADM [9]): Active; Activity (MCF7/ADM [10]): inactive; Activity (MCF7/ADM [11]): Active; inhibition (MCF7/ADM [12]): Active; inhibition in vivo at 2 mg/kg [13]: 69.7%; inhibition (MCF7/ADM [14]): Active
COc1cc2c(cc1OC)CN(CCNC(=O)c1ccc(-c3ccc4ncnc(Nc5ccc(Br)cc5)c4c3)cc1)CC2	16.3	
COc1cc2c(cc1OC)CN(CCNC(=O)c1ccc(-c3ccc4ncnc(Nc5cccc(C)c5)c4c3)cc1)CC2	24.3	
COc1cc2c(cc1OC)CN(CCNC(=O)c1ccc(-c3ccc4ncnc(Nc5ccc(F)cc5)c4c3)cc1)CC2	14.1	
COc1cc2c(cc1OC)CN(CCNC(=O)c1ccc(-c3ccc4ncnc(NCc5ccc(Cl)cc5)c4c3)cc1)CC2	9.3	
COc1cccc2c1C(=O)c1c(O)c3c(c(O)c1C2=O)C[C@@](O)(C(=O)CO)C[C@@H]3O[C@H]1C[C@H](N)[C@H](O)[C@H](C)O1.Cl [DOXORUBICIN HYDROCHLORIDE]		Activity [15]: Non-Toxic; Activity [16]: Non-Toxic
COc1cc2c(cc1OC)CN(CCNC(=O)c1ccc(-c3ccc4ncnc(Nc5cccc(F)c5)c4c3)cc1)CC2	5.3	
COc1ccc(Nc2ncnc3ccc(-c4ccc(C(=O)NCCN5CCc6cc(OC)c(OC)cc6C5)cc4)cc23)cc1F	25.2	
COc1cc2c(cc1OC)CN(CCNC(=O)c1ccc(-c3ccc4ncnc(Nc5cccc(C#N)c5)c4c3)cc1)CC2	2.5	
COc1cc2c(cc1OC)CN(CCNC(=O)c1ccc(-c3ccc4ncnc(Nc5ccc(C)cc5)c4c3)cc1)CC2	3.1	
COc1cc2c(cc1OC)CN(CCNC(=O)c1ccc(-c3ccc4ncnc(NCc5ccccc5)c4c3)cc1)CC2	3.3	
COc1cc2c(cc1OC)CN(CCc1ccc(NC(=O)c3cc(OC)c(OC)cc3NC(=O)c3cnc4ccccc4c3)cc1)CC2 [TARIQUIDAR]	11	Activity [2]: Non-Toxic; inhibition (INH) [3]: Active; Activity [5]: Non-Toxic; Activity (MCF7/ADM [6]): Active; Activity (MCF7/ADM [8]): Active; inhibition (MCF7/ADM [9]): Active; inhibition (MCF7/ADM [12]): Active; inhibition in vivo at 2 mg/kg [13]: 49.4%
COc1cccc(Nc2ncnc3ccc(-c4ccc(C(=O)NCCN5CCc6cc(OC)c(OC)cc6C5)cc4)cc23)c1	1.3	
COc1cc2c(cc1OC)CN(CCNC(=O)c1ccc(-c3ccc4ncnc(NCc5cccc(Cl)c5)c4c3)cc1)CC2	1.5	
COc1cc2c(cc1OC)CN(CCNC(=O)c1ccc(-c3ccc4ncnc(Nc5cccc(Br)c5)c4c3)cc1)CC2	3.4	
COC(=O)c1ccc(Nc2ncnc3ccc(-c4ccc(C(=O)NCCN5CCc6cc(OC)c(OC)cc6C5)cc4)cc23)cc1	10.1	
COc1cc2c(cc1OC)CN(CCNC(=O)c1ccc(-c3ccc4ncnc(NCc5ccccc5F)c4c3)cc1)CC2	7.2	
COc1cc2c(cc1OC)CN(CCNC(=O)c1ccc(-c3ccc4ncnc(NCc5ccc(F)cc5)c4c3)cc1)CC2	12.1	
COc1cc2c(cc1OC)CN(CCNC(=O)c1ccc(-c3ccc4ncnc(NCc5cccc(F)c5)c4c3)cc1)CC2	22.2	
COc1cc2c(cc1OC)CN(CCNC(=O)c1ccc(-c3ccc4ncnc(Nc5cccc(Cl)c5)c4c3)cc1)CC2	11.6	
COc1cc2c(cc1OC)CN(CCNC(=O)c1ccc(-c3ccc4ncnc(Nc5ccc(Cl)cc5)c4c3)cc1)CC2	4.3	
COc1cc2c(cc1OC)CN(CCNC(=O)c1ccc(-c3ccc4ncnc(Nc5ccccc5C)c4c3)cc1)CC2	41.3	
COc1cc2c(cc1OC)CN(CCNC(=O)c1ccc(-c3ccc4ncnc(Nc5ccccc5Cl)c4c3)cc1)CC2	13.3	
COC(=O)c1cccc(Nc2ncnc3ccc(-c4ccc(C(=O)NCCN5CCc6cc(OC)c(OC)cc6C5)cc4)cc23)c1	2.4	
